The values that follow come from paper PMC9851200, “Multiparameter phenotypic screening for endogenous TFEB and TFE3 translocation identifies novel chemical series modulating lysosome function” (Autophagy, 2022).

Assay in all cases: biochemical
Holding throughout (format): binding

In experiment [1] the target is cellular kinases of SH-SY5Y cells (Homo sapiens, UniProt Q05397). Conditions: 2µM, SH-SY5Y cells, read-out: KiNativ in-cell binding, % Inhibition, PTK2/FAK. The text has this:
(§1) As KINOMEscan is an in vitro assay, and as different cell types have variable kinase expression profiles we sought to determine the kinase binding profile in our SH-SY5Y TFEB-relocalization cell model. […] Bound kinases were pulled down and analyzed by mass spectrometry to determine the in situ kinase binding profile for each compound.

Experiment [2] deals with T1, cellular kinases of SH-SY5Y cells (Homo sapiens, UniProt Q15418).
T1 construct: endogenous in cells; host or cells: SH-SY5Y
Conditions: 2µM, SH-SY5Y cells.
Excerpt: as §1

Experiment [3] has as its target T2, cellular kinases of SH-SY5Y cells (Homo sapiens, UniProt Q8TD19).
T2 construct: endogenous in cells; host or cells: SH-SY5Y
T2 sequence (Q8TD19 1-979): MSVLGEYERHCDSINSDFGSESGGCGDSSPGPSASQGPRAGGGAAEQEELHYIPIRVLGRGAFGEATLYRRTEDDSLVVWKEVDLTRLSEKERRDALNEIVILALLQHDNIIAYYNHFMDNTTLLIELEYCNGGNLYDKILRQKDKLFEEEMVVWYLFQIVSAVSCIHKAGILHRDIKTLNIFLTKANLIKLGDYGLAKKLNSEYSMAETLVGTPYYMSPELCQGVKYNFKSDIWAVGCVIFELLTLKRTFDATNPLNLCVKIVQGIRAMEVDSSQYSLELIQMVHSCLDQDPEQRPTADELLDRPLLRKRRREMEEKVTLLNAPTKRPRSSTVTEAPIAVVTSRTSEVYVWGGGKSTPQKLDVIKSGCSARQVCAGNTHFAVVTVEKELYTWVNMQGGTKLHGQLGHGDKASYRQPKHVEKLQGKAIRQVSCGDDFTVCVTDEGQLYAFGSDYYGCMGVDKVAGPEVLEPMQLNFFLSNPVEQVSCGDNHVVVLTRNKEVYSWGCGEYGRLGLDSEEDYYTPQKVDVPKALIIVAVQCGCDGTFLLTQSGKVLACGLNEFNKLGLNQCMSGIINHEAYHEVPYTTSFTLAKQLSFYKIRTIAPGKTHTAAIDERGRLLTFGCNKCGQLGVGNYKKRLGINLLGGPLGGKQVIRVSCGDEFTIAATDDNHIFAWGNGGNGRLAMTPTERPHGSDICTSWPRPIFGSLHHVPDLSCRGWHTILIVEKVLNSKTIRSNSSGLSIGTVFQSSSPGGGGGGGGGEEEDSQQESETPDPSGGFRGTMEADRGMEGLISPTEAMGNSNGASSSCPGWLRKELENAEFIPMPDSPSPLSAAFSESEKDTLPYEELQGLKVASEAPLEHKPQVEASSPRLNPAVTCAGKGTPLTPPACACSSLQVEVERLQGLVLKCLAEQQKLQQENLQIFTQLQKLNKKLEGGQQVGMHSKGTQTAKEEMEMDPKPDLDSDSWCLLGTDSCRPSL
Conditions: 2µM, SH-SY5Y cells, read-out: KiNativ in-cell binding, % Inhibition, NEK9.
Excerpt: as §1

In experiment [4] the target is cellular kinases of SH-SY5Y cells (Homo sapiens, UniProt O14965). Conditions: 2µM, SH-SY5Y cells, read-out: KiNativ in-cell binding, % Inhibition, AURKA/AurA.
Excerpt: as §1

Experiment [5] deals with T3, cellular kinases of SH-SY5Y cells (Homo sapiens, UniProt O75063).
T3 construct: endogenous in cells; host or cells: SH-SY5Y
Conditions: 2µM; SH-SY5Y cells; Labeling Site ATP; ETEPACADGDIMEGSVTLWLPDVWPLQKHR; read-out: KiNativ in-cell binding, % Inhibition, FAM20B.
Excerpt: as §1

The target in experiment [6] is T4, cellular kinases of SH-SY5Y cells (Homo sapiens, UniProt P45985).
T4 sequence (P45985 1-399): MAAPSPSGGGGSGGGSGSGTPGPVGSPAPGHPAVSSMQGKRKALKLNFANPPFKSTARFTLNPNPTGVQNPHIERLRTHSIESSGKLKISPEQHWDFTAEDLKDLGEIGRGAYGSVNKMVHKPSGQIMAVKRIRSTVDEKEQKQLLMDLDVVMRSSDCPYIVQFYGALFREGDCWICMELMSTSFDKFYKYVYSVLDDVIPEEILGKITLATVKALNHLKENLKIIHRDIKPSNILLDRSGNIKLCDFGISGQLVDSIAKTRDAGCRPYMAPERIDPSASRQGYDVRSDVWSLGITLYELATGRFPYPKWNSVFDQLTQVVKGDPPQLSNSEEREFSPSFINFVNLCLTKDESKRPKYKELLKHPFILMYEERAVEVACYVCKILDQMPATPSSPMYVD
Conditions: 2µM, SH-SY5Y cells; for inhibition at 2 µM: read-out: KiNativ in-cell binding, % Inhibition, MAP2K4.
Excerpt: as §1

Experiment [7] deals with cellular kinases of SH-SY5Y cells (Homo sapiens, UniProt P50613). Conditions: 2µM; SH-SY5Y cells; Labeling Site Lys2; DLKPNNLLLDENGVLK; read-out: KiNativ in-cell binding, % Inhibition, CDK7.
Excerpt: as §1

In experiment [8] the target is cellular kinases of SH-SY5Y cells (Homo sapiens, UniProt Q13535). Conditions: 2µM; SH-SY5Y cells; Labeling Site ATP; FYIMMCKPK; read-out: KiNativ in-cell binding, % Inhibition, ATR.
Excerpt: as §1

The target of experiment [9] is cellular kinases of SH-SY5Y cells (Homo sapiens, UniProt P49840). Conditions: 2µM; SH-SY5Y cells; labeling site Lys2; peptide DIKPQNLLVDPDTAVLK
Excerpt: as §1

For experiment [10], the target named is T5, cellular kinases of SH-SY5Y cells (Homo sapiens, UniProt Q13418).
T5 construct: endogenous in cells; host or cells: SH-SY5Y
Conditions: 2µM, SH-SY5Y cells.
Excerpt: as §1

Read-outs that look alike come from different tables or passages of the source.

T5 sequence (Q13418 whole entry): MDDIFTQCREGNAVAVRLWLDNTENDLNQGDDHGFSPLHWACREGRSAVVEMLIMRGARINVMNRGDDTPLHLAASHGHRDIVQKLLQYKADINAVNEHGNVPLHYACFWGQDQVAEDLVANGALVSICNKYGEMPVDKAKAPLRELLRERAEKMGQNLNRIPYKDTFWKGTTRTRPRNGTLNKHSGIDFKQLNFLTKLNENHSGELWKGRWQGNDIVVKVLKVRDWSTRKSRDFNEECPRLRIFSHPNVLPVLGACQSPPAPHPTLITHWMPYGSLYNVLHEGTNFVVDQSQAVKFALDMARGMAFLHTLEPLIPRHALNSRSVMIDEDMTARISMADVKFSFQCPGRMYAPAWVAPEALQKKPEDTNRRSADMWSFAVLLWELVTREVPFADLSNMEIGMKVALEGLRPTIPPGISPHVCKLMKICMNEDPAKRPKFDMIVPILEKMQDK
cellular kinases of SH-SY5Y cells (Homo sapiens, UniProt Q05397), sequence (Q05397 whole entry): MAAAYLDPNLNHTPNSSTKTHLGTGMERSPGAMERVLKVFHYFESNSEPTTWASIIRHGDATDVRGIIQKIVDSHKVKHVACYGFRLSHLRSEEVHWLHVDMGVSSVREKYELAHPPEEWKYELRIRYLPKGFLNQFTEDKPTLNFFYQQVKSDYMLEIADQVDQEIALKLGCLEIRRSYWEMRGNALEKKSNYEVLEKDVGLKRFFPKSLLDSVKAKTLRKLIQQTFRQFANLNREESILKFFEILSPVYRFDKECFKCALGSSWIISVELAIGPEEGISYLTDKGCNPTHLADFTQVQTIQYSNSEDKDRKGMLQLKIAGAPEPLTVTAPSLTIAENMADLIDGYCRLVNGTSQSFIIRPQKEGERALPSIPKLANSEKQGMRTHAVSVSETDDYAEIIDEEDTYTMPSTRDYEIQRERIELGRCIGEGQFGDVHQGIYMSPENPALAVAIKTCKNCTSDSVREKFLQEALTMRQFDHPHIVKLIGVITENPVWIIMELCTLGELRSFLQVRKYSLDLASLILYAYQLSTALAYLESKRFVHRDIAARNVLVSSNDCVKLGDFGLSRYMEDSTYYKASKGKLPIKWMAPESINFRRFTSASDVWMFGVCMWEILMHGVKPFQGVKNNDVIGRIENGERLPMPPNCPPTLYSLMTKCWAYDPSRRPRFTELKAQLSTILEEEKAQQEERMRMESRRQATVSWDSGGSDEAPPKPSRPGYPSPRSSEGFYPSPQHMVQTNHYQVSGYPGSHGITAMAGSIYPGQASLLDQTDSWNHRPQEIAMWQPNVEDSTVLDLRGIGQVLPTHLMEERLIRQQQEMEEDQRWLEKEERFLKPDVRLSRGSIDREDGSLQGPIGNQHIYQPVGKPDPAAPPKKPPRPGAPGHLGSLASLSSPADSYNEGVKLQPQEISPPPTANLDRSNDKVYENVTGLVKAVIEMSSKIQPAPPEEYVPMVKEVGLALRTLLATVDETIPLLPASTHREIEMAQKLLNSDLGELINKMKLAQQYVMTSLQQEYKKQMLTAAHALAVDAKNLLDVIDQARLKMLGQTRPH
cellular kinases of SH-SY5Y cells (Homo sapiens, UniProt O14965), sequence (O14965 whole entry): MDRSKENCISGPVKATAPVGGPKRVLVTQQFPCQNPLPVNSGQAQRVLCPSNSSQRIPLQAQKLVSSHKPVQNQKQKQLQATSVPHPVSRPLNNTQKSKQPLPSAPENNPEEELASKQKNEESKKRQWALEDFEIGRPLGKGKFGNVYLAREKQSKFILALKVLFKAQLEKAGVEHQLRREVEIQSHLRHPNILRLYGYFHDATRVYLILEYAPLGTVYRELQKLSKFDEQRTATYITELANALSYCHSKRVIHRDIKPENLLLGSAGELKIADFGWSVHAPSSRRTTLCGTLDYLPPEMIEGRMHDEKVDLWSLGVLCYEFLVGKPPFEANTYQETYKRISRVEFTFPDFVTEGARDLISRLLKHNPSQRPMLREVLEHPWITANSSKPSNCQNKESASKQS
T1 sequence (Q15418 whole entry): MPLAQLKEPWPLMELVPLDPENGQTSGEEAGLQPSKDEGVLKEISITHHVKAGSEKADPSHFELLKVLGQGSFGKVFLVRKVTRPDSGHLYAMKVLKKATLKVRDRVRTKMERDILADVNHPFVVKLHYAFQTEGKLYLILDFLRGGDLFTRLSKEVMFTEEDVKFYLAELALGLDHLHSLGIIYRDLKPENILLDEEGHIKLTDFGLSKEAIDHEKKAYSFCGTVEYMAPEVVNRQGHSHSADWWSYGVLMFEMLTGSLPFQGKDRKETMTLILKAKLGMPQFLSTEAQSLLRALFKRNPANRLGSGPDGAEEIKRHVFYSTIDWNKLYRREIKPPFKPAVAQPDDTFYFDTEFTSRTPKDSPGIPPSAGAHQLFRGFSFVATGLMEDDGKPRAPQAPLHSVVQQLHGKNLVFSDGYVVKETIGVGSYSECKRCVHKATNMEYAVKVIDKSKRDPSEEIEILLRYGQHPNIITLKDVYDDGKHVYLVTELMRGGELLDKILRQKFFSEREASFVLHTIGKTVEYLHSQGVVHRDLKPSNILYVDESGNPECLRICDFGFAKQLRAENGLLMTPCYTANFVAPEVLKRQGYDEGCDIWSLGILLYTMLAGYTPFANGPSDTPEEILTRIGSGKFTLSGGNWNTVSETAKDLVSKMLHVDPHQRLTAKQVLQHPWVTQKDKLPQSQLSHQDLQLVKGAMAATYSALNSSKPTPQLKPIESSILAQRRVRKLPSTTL
cellular kinases of SH-SY5Y cells (Homo sapiens, UniProt P49840), sequence (P49840 whole entry): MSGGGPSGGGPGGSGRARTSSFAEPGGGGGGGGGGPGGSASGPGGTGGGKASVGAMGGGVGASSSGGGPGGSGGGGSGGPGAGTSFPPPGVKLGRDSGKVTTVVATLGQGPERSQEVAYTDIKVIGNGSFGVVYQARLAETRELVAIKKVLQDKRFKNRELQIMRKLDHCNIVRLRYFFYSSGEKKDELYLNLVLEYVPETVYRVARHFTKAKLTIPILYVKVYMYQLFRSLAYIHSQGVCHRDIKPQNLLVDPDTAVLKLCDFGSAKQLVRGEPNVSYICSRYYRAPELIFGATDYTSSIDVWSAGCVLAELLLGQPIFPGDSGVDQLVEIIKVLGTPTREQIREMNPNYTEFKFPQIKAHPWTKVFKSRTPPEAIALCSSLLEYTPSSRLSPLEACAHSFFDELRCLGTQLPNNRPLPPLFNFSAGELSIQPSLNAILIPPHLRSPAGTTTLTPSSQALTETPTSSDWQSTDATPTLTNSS
T3 sequence (O75063 whole entry): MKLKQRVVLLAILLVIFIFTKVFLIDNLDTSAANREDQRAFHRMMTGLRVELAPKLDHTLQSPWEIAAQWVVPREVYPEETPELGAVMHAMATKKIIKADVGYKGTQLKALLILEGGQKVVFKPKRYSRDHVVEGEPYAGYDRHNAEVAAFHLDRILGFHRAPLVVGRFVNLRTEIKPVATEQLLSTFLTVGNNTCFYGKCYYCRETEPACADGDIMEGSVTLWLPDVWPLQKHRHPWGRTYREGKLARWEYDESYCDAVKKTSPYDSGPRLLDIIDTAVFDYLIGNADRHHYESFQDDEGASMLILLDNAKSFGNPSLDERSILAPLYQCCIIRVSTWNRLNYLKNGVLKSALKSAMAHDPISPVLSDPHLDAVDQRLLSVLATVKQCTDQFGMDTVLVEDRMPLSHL
cellular kinases of SH-SY5Y cells (Homo sapiens, UniProt P50613), sequence (P50613 whole entry): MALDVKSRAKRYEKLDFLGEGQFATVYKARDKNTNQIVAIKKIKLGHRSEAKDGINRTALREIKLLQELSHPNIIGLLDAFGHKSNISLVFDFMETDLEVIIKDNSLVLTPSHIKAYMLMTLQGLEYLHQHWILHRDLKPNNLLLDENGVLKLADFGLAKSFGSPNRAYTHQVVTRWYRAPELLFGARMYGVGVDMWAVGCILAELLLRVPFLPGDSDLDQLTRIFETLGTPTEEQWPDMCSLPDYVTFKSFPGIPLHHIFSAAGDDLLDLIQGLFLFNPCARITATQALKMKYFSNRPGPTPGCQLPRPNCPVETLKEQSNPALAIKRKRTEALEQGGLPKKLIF

`Cc1cccc(-c2nc(Nc3ccc4ncsc4c3)c3ccccc3n2)n1` [NK140]: the inhibition at 2 µM was 16.9% in experiment [1] (Labeling Site Activation Loop, YMEDSTYYKASK); 18% in experiment [1] (Labeling Site Lys1, CIGEGQFGDVHQGIYMSPENPALAVAIKTCK); -25.4% in experiment [2] (Labeling Site Activation Loop, LTDFGLSKEAIDHEKK, read-out: KiNativ in-cell binding, % Inhibition, RPS6KA1/RSK1 domain1); -53.6% in experiment [2] (Labeling Site Lys2, DLKPSNILYVDESGNPECLR, read-out: KiNativ in-cell binding, % Inhibition, RPS6KA1/RSK1 domain2); 0.758% in experiment [3] (Labeling Site Activation Loop, LGDYGLAKK); -12.8% in experiment [3] (Labeling Site Lys1, RTEDDSLVVWKEVDLTR). The inhibition at 2 µM in experiment [3] (Labeling Site Lys2, DIKTLNIFLTK) was -8%; in experiment [4] (Labeling Site Lys1, FILALKVLFK), 8.2%; in experiment [4] (Labeling Site Lys2, DIKPENLLLGSAGELK) it was 18%; in experiment [5], -39.2%; in [6] (Labeling Site Activation Loop, LCDFGISGQLVDSIAKTR), -2.3%; in experiment [6] (Labeling Site Lys2, DIKPSNILLDR), 4%. In addition, the inhibition at 2 µM was 56.5% in experiment [7]; -42.5% in [8]; -31.8% in experiment [10] (Labeling Site Protein Kinase Domain, ISMADVKFSFQCPGR, read-out: KiNativ in-cell binding, % Inhibition, ILK). For the same molecule, in experiment [6] (labeling site Lys1, peptide MVHKPSGQIMAVKR), the “KiNativ in-cell binding, MAP2K4” value was determined as 26.1. Also, the “KiNativ in-cell binding, GSK3A” value in experiment [9] stood at 7.1. Also, the “KiNativ in-cell binding, ILK” value in experiment [10] (labeling site Lys1, peptide WQGNDIVVKVLK) is -23.6.
